Measured values as given in patent US10213434B2, “Use of factor Xa inhibitors for regulating glycemia” (VAIOMER, priority 2015, dated 2019).
Read-outs that look alike come from different tables or passages of the source.

Key:
HFD C57/BL6 mice [1] = experiment: Fasting glycemia after 4 weeks of oral treatment in high fat diet mice; assay type: in vivo
Protocol: FIG. 2: NC or HFD C57/BL6 mice were gavaged daily with saline or one of three doses of Rivaroxaban (1, 2.5 or 5; n=5 per group) for 4 weeks. Histograms show fasting glycemia after 4 weeks of chronic treatment with Rivaroxaban. NC saline: control C57/BL6 mice fed with normal chow and gavaged with saline for 4 weeks. HFD saline: control C57/BL6 mice fed with high fat diet and gavaged with saline for 4 weeks. HFD+X1: C57/BL6 mice fed with high fat diet and gavaged with 1 mg/kg Rivaroxaban for 4 weeks. HFD+X2.5: C57/BL6 mice fed with high fat diet and gavaged with 2.5 mg/kg Rivaroxaban for 4 weeks. HFD+X5: C57/BL6 mice fed with high fat diet and gavaged with 5 mg/kg Rivaroxaban for 4 weeks. Data were analyzed by either one or two-way ANOVA with Tukey's multiple comparison tests and presented as mean±S.E.M. *P<0.05, **P<0.01, ***P<0.001. […]
(§1) An Oral Glucose Tolerance Test (OGTT) was performed on 6-hfasted mice. […] Glycemia was measured with a glucometer (Roche Diagnostics) from blood collected at the tail vein 30 min before the glucose […] and 15, 30, 60, 90 and 120 min after the gavage. The glucose tolerance index was calculated by adding the glycemic values from 30 to 90 min after glucose gavage divided by the corresponding duration.
(§2) After 4 weeks of treatment the inventors measured fasting glycaemia and glucose intolerance (FIGS. 7 and 8).

HFD C57/BL6 mice [2] = experiment: Oral glucose tolerance test (OGTT) after 4 weeks of oral treatment in high fat diet mice; assay type: in vivo
Protocol: FIG. 3: NC or HFD C57/BL6 mice were gavaged daily with saline or one of three doses of Rivaroxaban (1, 2.5 or 5; n=5 per group) for 4 weeks. Graphs show oral glucose tolerance test (OGTT) (1.5 g/kg) after 4 weeks of chronic treatment with Rivaroxaban. NC-NaCl: control C57/BL6 mice fed with normal chow and gavaged with saline for 4 weeks. HFD-NaCl: control C57/BL6 mice fed with high fat diet and gavaged with saline for 4 weeks. HFD-X1 mg/kg: C57/BL6 mice fed with high fat diet and gavaged with 1 mg/kg Rivaroxaban for 4 weeks. HFD-X2.5 mg/kg: C57/BL6 mice fed with high fat diet and gavaged with 2.5 mg/kg Rivaroxaban for 4 weeks. HFD-X5 mg/kg: C57/BL6 mice fed with high fat diet and gavaged with 5 mg/kg Rivaroxaban for 4 weeks.
FIG. 4: NC or HFD C57/BL6 mice were gavaged daily with saline or one of […] of Rivaroxaban (1, 2.5 or 5; n=5 per group) for 4 weeks. Histograms show glucose intolerance corresponding index (μM/min) from 30 min to 90 min after glucose administration. NC saline: control C57/BL6 mice fed with normal chow and gavaged with saline for 4 weeks. HFD saline: control C57/BL6 mice fed with high fat diet and gavaged with saline for 4 weeks. HFD+X1: C57/BL6 mice fed with high fat diet and gavaged with 1 mg/kg Rivaroxaban for 4 weeks. HFD+X2.5: C57/BL6 mice fed with high fat diet and gavaged with 2.5 mg/kg Rivaroxaban for 4 weeks. HFD+X5: C57/BL6 mice fed with high fat diet and gavaged with 5 mg/kg Rivaroxaban for 4 weeks. Data were analyzed by either one or two-way ANOVA with Tukey's multiple comparison tests and presented as mean±S.E.M. *P<0.05, **P<0.01, ***P<0.001.
FIG. 5: NC or HFD C57/BL6 mice were gavaged daily with saline or one of […] of Rivaroxaban (1, 2.5 or 5; n=5 per group) for 4 weeks. Histograms show diabetes and glucose intolerance corresponding index (μM/min) from 30 min before to 90 min after glucose administration. NC saline: control C57/BL6 mice fed with normal chow and gavaged with saline for 4 weeks. HFD saline: control C57/BL6 mice fed with high fat diet and gavaged with saline for 4 weeks. […] Data were analyzed by either one or two-way ANOVA with Tukey's multiple comparison tests and presented as mean±S.E.M. *P<0.05, **P<0.01, ***P<0.001. […]
as §1, §2

HFD mice = experiment: Bacterial translocation: 16S rDNA copies in mesenteric adipose tissue of HFD mice; assay type: in vivo; settings: Rivaroxaban 0.2, 0.5 and 1 mg/kg oral gavage daily, 4 weeks, vs non-treated HFD mice, FIG. 6
Protocol: To explore whether intestinal FXa inhibition regulates intestinal permeability the inventors have treated HFD mice daily during 4 weeks with 3 different doses of Rivaroxaban by oral gavage. The inventors chose low Rivaroxaban concentrations (0.2, 0.5 and 1 mg/kg) to have an intestinal effect only and avoid systemic anti-coagulation. After 4 weeks of treatment the number of 16S rDNA copies was measured in mesenteric adipose tissue in order to evaluate bacterial translocation.

mouse model of diabetes = settings: administered into a mouse model of diabetes; cited from earlier work
[3] = low = typically inferior or equal to 20%, cited from earlier work

In the case of `O=C(NC[C@H]1CN(c2ccc(N3CCOCC3=O)cc2)C(=O)O1)c1ccc(Cl)s1` [Rivaroxaban, rivaroxaban], the “fasting glycemia (increase induced by high fat diet)” value (HFD C57/BL6 mice [1]; HFD C57/BL6 mice, Rivaroxaban 1, 2.5 or 5 mg/kg oral gavage, FIG. 2) is reported as “abolished”, the “glucose intolerance index (30 min to 90 min after glucose administration), HFD-induced increase” value (HFD C57/BL6 mice [2]; 5 mg/kg Rivaroxaban oral gavage, FIG. 4) is reported as “reduced” and the “diabetes and glucose intolerance index (30 min before to 90 min after glucose administration)” value (HFD C57/BL6 mice [2]; 5 mg/kg Rivaroxaban oral gavage, vs HFD saline mice, FIG. 5) is reported as “significant reduction”. The “blood glucose concentration following oral glucose challenge (OGTT)” value (HFD C57/BL6 mice [2]; oral Rivaroxaban 1, 2.5 or 5 mg/kg, vs HFD mice gavaged with saline, glucose 1.5 g/kg, FIG. 3) was “reduced”, the “bacterial translocation (number of 16S rDNA copies in mesenteric adipose tissue)” value (HFD mice) was “reduce bacterial translocation” and the antithrombotic effects (mouse model of diabetes) was “displayed antithrombotic effects”.
For enoxaparin, the oral bioavailability [3] is listed as “low oral bioavailability”.
For `CO[C@H]1O[C@H](COS(=O)(=O)O)[C@@H](O[C@@H]2O[C@@H](C(=O)O)[C@@H](O[C@H]3O[C@H](COS(=O)(=O)O)[C@@H](O[C@@H]4O[C@H](C(=O)O)[C@@H](O[C@H]5O[C@H](COS(=O)(=O)O)[C@@H](OC)[C@H](OC)[C@H]5NC(=O)CCCCCNC(=O)CCCC[C@@H]5SC[C@@H]6NC(=O)N[C@@H]65)[C@H](OC)[C@H]4OC)[C@H](OS(=O)(=O)O)[C@H]3OS(=O)(=O)O)[C@H](OC)[C@H]2OC)[C@H](OS(=O)(=O)O)[C@H]1OS(=O)(=O)O` [idrabiotaparinux], the oral bioavailability [3] is given as “low oral bioavailability”.
In the case of `CC(=N)N1CC[C@H](Oc2ccc([C@H](Cc3ccc4ccc(C(=N)N)cc4c3)C(=O)O)cc2)C1` [DX-9065], the oral bioavailability [3] is given as “low oral bioavailability”.
For `COC(=O)[C@H](Cc1cccc(C(=N)N)c1)[C@@H](C)NC(=O)c1ccc(-c2cc[n+]([O-])cc2)cc1` [Otamixaban, otamixaban], the fasting glycaemia (HFD C57/BL6 mice [1]; HFD mice, Otamixaban 1 and 5 mg/kg oral gavage, FIG. 7) is given as “reduces fasting glycaemia”, the “glucose intolerance (OGTT)” value (HFD C57/BL6 mice [2]; Otamixaban 1 and 5 mg/kg oral gavage, FIG. 8) is given as “reduces glucose intolerance” and the oral bioavailability [3] is given as “low bioavailability”. The oral bioavailability ([3]; listed as otamixaban) was “low oral bioavailability”.
In the case of `CO[C@H]1O[C@H](COS(=O)(=O)O)[C@@H](O[C@@H]2O[C@@H](C(=O)O)[C@@H](O[C@H]3O[C@H](COS(=O)(=O)O)[C@@H](O[C@@H]4O[C@H](C(=O)O)[C@@H](O[C@H]5O[C@H](COS(=O)(=O)O)[C@@H](OC)[C@H](OC)[C@H]5OC)[C@H](OC)[C@H]4OC)[C@H](OS(=O)(=O)O)[C@H]3OS(=O)(=O)O)[C@H](OC)[C@H]2OC)[C@H](OS(=O)(=O)O)[C@H]1OS(=O)(=O)O` [idraparinux], the oral bioavailability [3] is listed as “low oral bioavailability”.
